# Experimental data: patent US8722849B2, “Polypeptides” (Novo Nordisk A/S, priority 2011, dated 2014)
# Read-outs that look alike come from different tables or passages of the source. Starred links: 1 amine or outer side, 2 acyl side, 3 side chain; linkers in the order of their positions; H or OH if unused. Positions of bridges follow the written chain, without caps; N, C: chain ends. Residues, ends and D or L forms follow the SMILES beside them. *: point of attachment. C20 diacid = O=C(O)CCCCCCCCCCCCCCCCCCC(=O)*; γGlu = O=C(O)[C@H](CCC(=O)[*:2])N[*:1]
# Columns and labels:
# [1] = target: T1, human amylin receptor (amylin 3(a) receptor: human calcitonin receptor + RAMP-3) (Homo sapiens, UniProt O60896+P30988); assay: Assay (II)a functional CRE-luciferase assay, human amylin receptor; format: cell-based
# T1 construct: expressed in transfected cells; host or cells: BHK570
# T1 sequence (P30988 25-474): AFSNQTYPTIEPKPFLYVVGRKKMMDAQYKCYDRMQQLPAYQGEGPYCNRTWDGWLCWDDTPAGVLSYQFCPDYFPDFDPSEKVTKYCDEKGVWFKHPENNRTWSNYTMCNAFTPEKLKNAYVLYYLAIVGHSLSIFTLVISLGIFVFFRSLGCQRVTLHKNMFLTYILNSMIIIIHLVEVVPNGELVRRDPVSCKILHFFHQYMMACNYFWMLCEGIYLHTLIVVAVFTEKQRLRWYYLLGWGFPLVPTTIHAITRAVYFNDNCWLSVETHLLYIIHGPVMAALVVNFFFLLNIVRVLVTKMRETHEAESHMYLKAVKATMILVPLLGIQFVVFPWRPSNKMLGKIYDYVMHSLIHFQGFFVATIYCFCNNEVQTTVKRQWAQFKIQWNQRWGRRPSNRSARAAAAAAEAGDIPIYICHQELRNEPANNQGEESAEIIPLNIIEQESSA
# T1 sequence (O60896 24-148 partner): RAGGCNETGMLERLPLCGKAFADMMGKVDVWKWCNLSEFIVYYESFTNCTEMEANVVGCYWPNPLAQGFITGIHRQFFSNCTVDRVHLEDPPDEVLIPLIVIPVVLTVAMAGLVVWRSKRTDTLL
# [2] = target: T2, human calcitonin receptor (Homo sapiens, UniProt P30988); assay: Assay (II)a functional CRE-luciferase assay, human calcitonin receptor; format: cell-based; conditions: Table 11; read-out: CTa receptor human EC50
# T2 construct: expressed in transfected cells; host or cells: BHK570
# T2 sequence (P30988 25-474): T1 sequence (P30988 25-474)
# [3] = Assay (III) ThT fibrillation assay for physical stability; format: physicochemical; conditions: ThT fibrillation assay
# Outline: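 Freshly prepared formulations, pH-adjusted, with 1 μM ThT; four or eight replicates incubated at 37 °C under 960 rpm orbital shaking. Fluorescence (ex 444/em 485 nm) read every 20 min; […]. Peptide concentration measured by RP-HPLC before and after the run.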
# [4] = Assay (IV) determination of solubility; format: physicochemical
# Outline: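 Stock ~500 nmol/ml in water; 1:1 with 100 mM buffer, pH 3.0–8.0 (glycylglycine ≤5.0, bistrispropane ≥6.0); 18 h RT; spin; HPLC quantitation of soluble polypeptide.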
# [5] = bistrispropane buffer, pH 6, pH 6.0, read-out: Solubility pH 6.0
# [6] = bistrispropane buffer, pH 6.5, pH 6.5, read-out: Solubility pH 6.5
# [7] = bistrispropane buffer, pH 7, pH 7.0, read-out: Solubility pH 7.0
# [8] = bistrispropane buffer, pH 7.5, pH 7.5, read-out: Solubility pH 7.5
# [9] = bistrispropane buffer, pH 8, pH 8.0, read-out: Solubility pH 8.0
# [10] = glycylglycine buffer, pH 3, pH 3.0, read-out: Solubility pH 3.0
# [11] = glycylglycine buffer, pH 4, pH 4.0, read-out: Solubility pH 4.0
# [12] = glycylglycine buffer, pH 5, pH 5.0, read-out: Solubility pH 5.0
EC50 ([1]; Table 11) [nM],EC50 [2] [nM],ThT pH 4.0 lag time (h) [3] [h],"solubility at 18 h [4, 5] [µM]","solubility at 18 h [4, 6] [µM]","solubility at 18 h [4, 7] [µM]","solubility at 18 h [4, 8] [µM]","solubility at 18 h [4, 9] [µM]","solubility at 18 h [4, 10] [µM]","solubility at 18 h [4, 11] [µM]","solubility at 18 h [4, 12] [µM]","EC50 ([1]; Table 6, human amylin receptor) [nM]",SMILES
0.045,0.0615,0.3,155,127,54,157,117,> 200,> 200,> 200,,"CC[C@H](C)[C@H](NC(=O)[C@@H]1CCCN1C(=O)CNC(=O)[C@H](Cc1ccccc1)NC(=O)[C@H](CC(N)=O)NC(=O)[C@H](CC(N)=O)NC(=O)[C@H](CO)NC(=O)[C@H](CO)NC(=O)[C@H](Cc1c[nH]cn1)NC(=O)[C@@H](NC(=O)[C@H](CC(C)C)NC(=O)[C@H](Cc1ccccc1)NC(=O)[C@H](CC(N)=O)NC(=O)[C@H](C)NC(=O)[C@H](CC(C)C)NC(=O)[C@H](CCCNC(=N)N)NC(=O)[C@H](CCC(N)=O)NC(=O)[C@@H](NC(=O)[C@H](C)NC(=O)[C@@H]1CSSC[C@H](NC(=O)[C@H](CCC(=O)O)NC(=O)[C@H](CCCNC(=N)N)NC(=O)[C@H](CCC(=O)O)NC(=O)[C@H](CCC(=O)O)NC(=O)CCCCCCCCCCCCCCCCCCC(=O)O)C(=O)N[C@@H](CC(N)=O)C(=O)N[C@@H]([C@@H](C)O)C(=O)N[C@@H](C)C(=O)N[C@@H]([C@@H](C)O)C(=O)N1)[C@@H](C)O)C(C)C)C(=O)N[C@@H](CC(C)C)C(=O)N1CCC[C@H]1C(=O)N1CCC[C@H]1C(=O)N[C@H](C(=O)N[C@@H](CC(N)=O)C(=O)N[C@H](C(=O)NCC(=O)N[C@@H](CO)C(=O)N[C@@H](CC(N)=O)C(=O)N[C@H](C(=O)N1CCC[C@H]1C(N)=O)[C@@H](C)O)C(C)C)[C@@H](C)O [Example 121, N-alpha-(19-carboxynonadecanoyl)-Glu-Glu-Arg-[Glu1,Pro37]-pramlintide] ({C20 diacid}-EERECNTATCATQRLANFLVHSSNNFGPILPPTNVGSNTP-NH2; disulfide 5-10 (inferred); C-terminus assumed)"
,0.061,0.7,> 200,> 200,> 200,> 200,> 200,> 200,> 200,> 200,0.063,"CC[C@H](C)[C@H](NC(=O)[C@@H]1CCCN1C(=O)CNC(=O)[C@H](Cc1ccccc1)NC(=O)[C@H](CC(N)=O)NC(=O)[C@H](CC(N)=O)NC(=O)[C@H](CO)NC(=O)[C@H](CO)NC(=O)[C@H](Cc1c[nH]cn1)NC(=O)[C@@H](NC(=O)[C@H](CC(C)C)NC(=O)[C@H](Cc1ccccc1)NC(=O)[C@H](CC(N)=O)NC(=O)[C@H](C)NC(=O)[C@H](CC(C)C)NC(=O)[C@H](CCCNC(=N)N)NC(=O)[C@H](CCC(N)=O)NC(=O)[C@@H](NC(=O)[C@H](C)NC(=O)[C@@H]1CSSC[C@H](NC(=O)[C@H](CCC(=O)O)NC(=O)[C@H](CCCNC(=N)N)NC(=O)[C@H](CCC(=O)O)NC(=O)CC[C@H](NC(=O)CCCCCCCCCCCCCCCCCCC(=O)O)C(=O)O)C(=O)N[C@@H](CC(N)=O)C(=O)N[C@@H]([C@@H](C)O)C(=O)N[C@@H](C)C(=O)N[C@@H]([C@@H](C)O)C(=O)N1)[C@@H](C)O)C(C)C)C(=O)N[C@@H](CC(C)C)C(=O)N1CCC[C@H]1C(=O)N1CCC[C@H]1C(=O)N[C@H](C(=O)N[C@@H](CC(N)=O)C(=O)N[C@H](C(=O)NCC(=O)N[C@@H](CO)C(=O)N[C@@H](CC(N)=O)C(=O)N[C@H](C(=O)N1CCC[C@H]1C(N)=O)[C@@H](C)O)C(C)C)[C@@H](C)O [Example 122, N-alpha-[(S)-4-Carboxy-4-(19-carboxynonadecanoylamino)butyryl]-Glu-Arg-[Glu1,Pro37]-pramlintide] ({C20 diacid-γGlu}-ERECNTATCATQRLANFLVHSSNNFGPILPPTNVGSNTP-NH2; disulfide 4-9 (inferred); C-terminus assumed)"
